Experimental data taken from patent publication US20080145893A1, “Method for producing a recombinant protein at high specific productivity, high batch yield and high volumetric yield by means of transient transfection” (EXCELLEGENE SA, priority 2006, published 2008).

Tests used:
[1] = tested on: HEK293E cells; assay: Influence of sodium butyrate on IgG batch yield (ELISA) of transiently transfected cells; conditions: day 14
[2] = tested on: CHO DG44 cells; assay: Influence of temperature and sodium butyrate on IgG batch yield (ELISA) of transiently transfected cells; assay type: cell-based; conditions: 2 mmol/l NaBut, peak value during 18 day cultivation
Description: After that time, 18 ml of ProCHO5 medium were added. The cells were then equally distributed into 4 new 50-ml filter tubes (i.e., 5 ml of cell suspension in each tube) and treated as follows:
Tubes 8.1 and 8.3: Addition of sodium butyrate to a final concentration of 2 mmol/l
Tubes 8.2 and 8.4: No addition of sodium butyrate.

[3] = tested on: HEK293E cells; assay: Influence of 2-aminopurine on IgG batch yield (ELISA) of transiently transfected cells; assay type: cell-based; conditions: with 3 mmol/l sodium butyrate, day 18

| SMILES | Batch yield ([1]; 1 mmol/l NaBut) [mg/L] | Batch yield ([1]; 2 mmol/l NaBut) [mg/L] | Batch yield ([1]; 3 mmol/l NaBut) [mg/L] | Batch yield ([1]; 6 mmol/NaBut) [mg/L] | Batch yield ([1]; 12 mmol/l NaBut) [mg/L] | Maximum batch yield ([2]; 31° C.) [mg/L] | Maximum batch yield ([2]; 37° C.) [mg/L] | Batch yield ([3]; 5 mmol/l 2-aminopurine) [mg/L] | Batch yield ([3]; 10 mmol/l 2-aminopurine) [mg/L] |
| --- | --- | --- | --- | --- | --- | --- | --- | --- | --- |
| CCCC(=O)[O-].[Na+] [NaBut, sodium butyrate] | 419 | 632 | 673 | 447 | 288 | 231 | 218 |  |  |
| Nc1ncc2[nH]cnc2n1 [2-aminopurine] |  |  |  |  |  |  |  | 628 | 708 |
